According to patent publication US12208088B2 (Genentech, Inc., priority 2018, dated 2025):

Biological target: HPK1 (Homo sapiens (Human), UniProt Q92918)
Assay: HPK1 Lantha binding assay ("Lanth")
Details: binding assays; Morrison Ki fit
Summary of the method: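 Ki values are from Morrison-equation fitting of 665/615 nm TR-FRET signals, taking enzyme level, tracer level and tracer Kd into account. The assay mix held HPK1 (2 nM), Eu-anti-GST antibody (2 nM) and Tracer222 (15 nM). Incubations were two 1 h steps at 23 °C, on 5-fold serial compound dilutions.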

Sequence of HPK1 (Q92918 1-346 limits assumed): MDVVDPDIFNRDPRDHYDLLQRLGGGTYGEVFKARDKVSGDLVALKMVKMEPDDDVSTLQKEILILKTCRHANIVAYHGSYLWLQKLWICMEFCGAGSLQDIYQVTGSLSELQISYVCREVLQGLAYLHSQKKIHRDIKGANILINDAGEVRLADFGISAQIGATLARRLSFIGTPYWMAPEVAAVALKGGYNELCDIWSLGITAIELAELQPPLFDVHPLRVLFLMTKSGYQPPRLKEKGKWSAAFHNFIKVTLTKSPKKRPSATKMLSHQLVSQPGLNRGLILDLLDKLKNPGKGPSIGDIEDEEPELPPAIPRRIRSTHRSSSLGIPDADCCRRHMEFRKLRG

| Ki [nM] | SMILES |
| --- | --- |
| 9.98 | CN(C)C(=O)c1c(N)ccc(-c2cnc3c(c2Cl)[C@]2(CC[C@H](O)CC2)CN3)c1F [Compound 144b, 6-Amino-3-((1s,4s)-4′-chloro-4-hydroxy-1′,2′-dihydrospiro[cyclohexane-1,3′-pyrrolo[2,3-b]pyridin]-5′-yl)-2-fluoro-N,N-dimethylbenzamide] |
| 9.37 | CN(C)C(=O)c1c(N)ccc(-c2cnc3c(c2Cl)C2(CCC(c4cccnc4)C2)CN3)c1F (centres unmarked) [Compound 145, 6-Amino-3-(4′-chloro-3-(pyridin-3-yl)-1′,2′-dihydrospiro[cyclopentane-1,3′-pyrrolo[2,3-b]pyridin]-5′-yl)-2-fluoro-N,N-dimethylbenzamide] |
| 9.94 | CN(C)C(=O)c1c(N)ccc(-c2cnc3c(c2Cl)[C@]2(CC[C@@H](c4cccnc4)C2)CN3)c1F [Compound 145a, 6-Amino-3-((1R,3R)-4′-chloro-3-(pyridin-3-yl)-1′,2′-dihydrospiro[cyclopentane-1,3′-pyrrolo[2,3-b]pyridin]-5′-yl)-2-fluoro-N,N-dimethylbenzamide] |
| 10.4 | CN(C)C(=O)c1c(N)ccc(-c2cnc3c(c2Cl)[C@]2(CC[C@H](c4cccnc4)C2)CN3)c1F [Compound 145c, 6-Amino-3-((1R,3S)-4′-chloro-3-(pyridin-3-yl)-1′,2′-dihydrospiro[cyclopentane-1,3′-pyrrolo[2,3-b]pyridin]-5′-yl)-2-fluoro-N,N-dimethylbenzamide] |
| 19.9 | CN(C)C(=O)c1c(N)ccc(-c2cnc3c(c2Cl)[C@@]2(CC[C@@H](c4cccnc4)C2)CN3)c1F [Compound 145d, 6-Amino-3-((1S,3R)-4′-chloro-3-(pyridin-3-yl)-1′,2′-dihydrospiro[cyclopentane-1,3′-pyrrolo[2,3-b]pyridin]-5′-yl)-2-fluoro-N,N-dimethylbenzamide] |
| 61.3 | O=C(c1cccc(-c2cnc3c(c2)C2(CC2)CN3)c1F)N1CCC12COC2 [Compound 147, (3-(1′,2′-dihydrospiro[cyclopropane-1,3′-pyrrolo[2,3-b]pyridin]-5′-yl)-2-fluorophenyl)(6-oxa-1-azaspiro[3.3]heptan-1-yl)methanone] |
| 2.21 | Cc1cnn([C@H]2CC[C@]3(CC2)CNc2ncc(-c4ccc(N)c(C(=O)N(C)C)c4F)c(Cl)c23)c1 [Compound 148a, 6-Amino-3-((1s,4s)-4′-chloro-4-(4-methyl-1H-pyrazol-1-yl)-1′,2′-dihydrospiro[cyclohexane-1,3′-pyrrolo[2,3-b]pyridin]-5′-yl)-2-fluoro-N,N-dimethylbenzamide] |
| 33.5 | CN(C)C(=O)c1cccc(-c2cnc3c(c2)C2(CC2)CN3)c1F [Compound 149, 3-(1′,2′-dihydrospiro[cyclopropane-1,3′-pyrrolo[2,3-b]pyridin]-5′-yl)-2-fluoro-N,N-dimethylbenzamide] |
| 14.2 | N#C[C@H]1CCCN1C(=O)c1cccc(-c2cnc3c(c2)C2(CC2)CN3)c1F [Compound 154a, (R)-1-(3-(1′,2′-dihydrospiro[cyclopropane-1,3′-pyrrolo[2,3-b]pyridin]-5′-yl)-2-fluorobenzoyl)pyrrolidine-2-carbonitrile] |
| 56.5 | Cc1ccnn1[C@H]1CC[C@@]2(CNc3ncc(-c4ccc(N)c(C(=O)N(C)C)c4F)c(Cl)c32)C1 [Compound 160a, 6-Amino-3-((1R,3S)-4′-chloro-3-(5-methyl-1H-pyrazol-1-yl)-1′,2′-dihydrospiro[cyclopentane-1,3′-pyrrolo[2,3-b]pyridin]-5′-yl)-2-fluoro-N,N-dimethylbenzamide] |
| 4.39 | CN(Cc1cnn(C)c1)C(=O)c1c(N)ccc(-c2cnc3c(c2Cl)C2(CC2)CN3)c1F [Compound 166, 6-Amino-3-(4′-chloro-1′,2′-dihydrospiro[cyclopropane-1,3′-pyrrolo[2,3-b]pyridin]-5′-yl)-2-fluoro-N-methyl-N-((1-methyl-1H-pyrazol-4-yl)methyl)benzamide] |
| 54 | CN(C)C(=O)c1c(N)ccc(-c2cnc3c(c2Cl)[C@]2(CC[C@H](n4nccc4C(F)(F)F)C2)CN3)c1F [Compound 169a, 6-Amino-3-((1R,3S)-4′-chloro-3-(5-(trifluoromethyl)-1H-pyrazol-1-yl)-1′,2′-dihydrospiro[cyclopentane-1,3′-pyrrolo[2,3-b]pyridin]-5′-yl)-2-fluoro-N,N-dimethylbenzamide] |
| 319 | O=C(c1cccc(-c2cnc3c(c2)C2(CC2)CN3)c1F)N1CCc2ccccc21 [Compound 172, (3-(1′,2′-dihydrospiro[cyclopropane-1,3′-pyrrolo[2,3-b]pyridin]-5′-yl)-2-fluorophenyl)(indolin-1-yl)methanone] |
| 127 | O=C(c1cccc(-c2cnc3c(c2)C2(CC2)CN3)c1F)N1CCc2ccncc21 [Compound 176, (2,3-dihydro-1H-pyrrolo[2,3-c]pyridin-1-yl)(3-(1′,2′-dihydrospiro[cyclopropane-1,3′-pyrrolo[2,3-b]pyridin]-5′-yl)-2-fluorophenyl)methanone] |
| 198 | OCc1ccc(-c2cnc3c(c2Cl)C2(CC=CC2)CN3)cc1 [Compound 181, (4-(4′-Chloro-1′,2′-dihydrospiro[cyclopentane-1,3′-pyrrolo[2,3-b]pyridin]-3-en-5′-yl)phenyl)methanol] |
| 829 | CC(C)(O)c1ccc(-c2cnc3c(c2Cl)C2(CC=CC2)CN3)cc1 [Compound 182, 2-(4-(4′-Chloro-1′,2′-dihydrospiro[cyclopentane-1,3′-pyrrolo[2,3-b]pyridin]-3-en-5′-yl)phenyl)propan-2-ol] |
| 30.3 | CS(=O)(=O)c1cccc(-c2cnc3c(c2Cl)C2(CC=CC2)CN3)c1 [Compound 183] |
| 50.3 | CCS(=O)(=O)c1cccc(-c2cnc3c(c2Cl)C2(CC=CC2)CN3)c1 [Compound 184, 4′-Chloro-5′-(3-(ethylsulfonyl)phenyl)-1′,2′-dihydrospiro[cyclopentane-1,3′-pyrrolo[2,3-b]pyridin]-3-ene] |
| 75.8 | CNS(=O)(=O)c1cccc(-c2cnc3c(c2Cl)C2(CC=CC2)CN3)c1 [Compound 185, 3-(4′-Chloro-1′,2′-dihydrospiro[cyclopentane-1,3′-pyrrolo[2,3-b]pyridin]-3-en-5′-yl)-N-methylbenzenesulfonamide] |
| 276 | CS(=O)(=O)c1ccc(-c2cnc3c(c2Cl)C2(CC=CC2)CN3)cc1 [Compound 186, 4′-Chloro-5′-(4-(methylsulfonyl)phenyl)-1′,2′-dihydrospiro[cyclopentane-1,3′-pyrrolo[2,3-b]pyridin]-3-ene] |
| 300 | CCS(=O)(=O)c1ccc(-c2cnc3c(c2Cl)C2(CC=CC2)CN3)cc1 [Compound 187, 4′-Chloro-5′-(4-(ethylsulfonyl)phenyl)-1′,2′-dihydrospiro[cyclopentane-1,3′-pyrrolo[2,3-b]pyridin]-3-ene] |
| 210 | CNS(=O)(=O)c1ccc(-c2cnc3c(c2Cl)C2(CC=CC2)CN3)cc1 [Compound 188, 4-(4′-Chloro-1′,2′-dihydrospiro[cyclopentane-1,3′-pyrrolo[2,3-b]pyridin]-3-en-5′-yl)-N-methylbenzenesulfonamide] |
| 315 | CCNS(=O)(=O)c1ccc(-c2cnc3c(c2Cl)C2(CC=CC2)CN3)cc1 [Compound 189, 4-(4′-Chloro-1′,2′-dihydrospiro[cyclopentane-1,3′-pyrrolo[2,3-b]pyridin]-3-en-5′-yl)-N-ethylbenzenesulfonamide] |
